Experiment: Human HepG2 cell viability assay in 384 well format
Type: toxicity, cell-based
Parameters: dose 125 nL, time 70.5 hour; cytotoxicity at 70.5 h: concentration not given beside the values
Settings: HepG2 cells, read-out: Inhibition

SMILES	cytotoxicity at 70.5 h [%]
CCC(C)(C)n1nnnc1C(c1cccs1)N1CCCCC1 (stereo not given)	-3.15
Cc1cc(-c2ccc(=O)n(CCNC(=O)C3CCCCC3)n2)c(C)o1	-1.98
CN(C)c1nccc(C2CN(c3cnccn3)CCO2)n1 (stereo not given)	13.3
Cc1nc(NCCN2CCCC2=O)cc(C2CN(C)CCO2)n1 (stereo not given)	1.86
CCc1cc(=O)[nH]c(NC2CCN(S(=O)(=O)c3ccccc3)CC2)n1	-7.53
Cc1ccc(-c2nc(C3CCN(C(=O)c4ccnn4C)CC3)no2)cn1	-7.4
O=C1CCC(c2nc(C3CCNCC3)no2)N1 (stereo not given)	-6.87
O=C1CCC(c2nc(C3CCN(C(=O)C4CC4)CC3)no2)N1 (stereo not given)	-4.42
Cn1cc(CN2CCc3nc4ccccc4c(=O)n3CC2)cn1	-1.93
Cc1cc(Nc2ccc(F)cn2)cc(C2CCCN2)n1 (stereo not given)	-7.05
CS(=O)(=O)N[C@@H]1CN(Cc2ccc3ccccc3c2)C[C@H]1O	-2.76
O=C(NC[C@]1(O)CN(Cc2ncccc2F)C[C@H]1O)c1cc[nH]n1	21.3
O=C(NC[C@]1(O)CCN(Cc2ccccc2F)C[C@H]1O)c1c[nH]cn1	-0.237
Cc1cncc(CN2CC[C@@](O)(CNC(=O)c3c[nH]cn3)[C@H](O)C2)c1	-6.5
Cc1ocnc1C(=O)N(C)[C@@H]1CCC[C@@H](N2CCCC2)[C@@H]1O	25.2
Cc1nccn1[C@@H]1CC[C@@H](NC(=O)CCCn2cccn2)[C@H]1O	19.3
Cc1noc(C)c1-c1nc(C2CCCN(C(=O)CCN)C2)ccc1CO (stereo not given)	-1.78
Cc1ocnc1C(=O)N(C)[C@@H]1CC[C@@H](n2ccnc2C)[C@@H]1O	-7.34
Cc1noc(C)c1-c1nc(C2CCCN(C(=O)C(C)C)C2)ccc1CO (stereo not given)	-2.96
CN(C)CC1(O)CCN(C(=O)Cc2ccc3c(c2)CCCC3)C1 (stereo not given)	-7
FC(F)(F)c1cc(C2CCN(c3cnccn3)CC2)n2ccnc2n1	-5.4
CNC(=O)CNC(=O)c1ccc(-c2scnc2C)nc1	-0.926
Cc1cc(C(=O)N2CCCC(c3cc(=O)nc4n3CCC4)C2)on1 (stereo not given)	-6.58
Nc1nccc(C2CCN(c3cnccn3)C2)n1 (stereo not given)	21.1
Cc1ccccc1OC1CCN(CC(=O)Nc2cn(C)nc2C)CC1	-1.78
Cc1cc(C)n(CC(=O)N2CCC(c3ccn4nccc4n3)CC2)n1	26.6
CCCN1CCC(c2cc(CCOc3ccc(C(F)(F)F)cc3)[nH]n2)C1 (stereo not given)	0.882

SMILES	cytotoxicity at 70.5 h [%]
CCC(C)NC(=O)c1cc(S(=O)(=O)N2CCCC2)c(C)s1 (stereo not given)	-3.53
Cc1cc(Nc2ccc(F)cn2)cc(C2CCN(Cc3ncc[nH]3)C2)n1 (stereo not given)	-0.353
CC(=O)N1CCCC1c1nc(CN(C)C(=O)C(C)C)cc(N(C)C)n1 (stereo not given)	-4.11
CO[C@@H]1CC[C@@H](NS(=O)(=O)c2cn(C)nc2C)[C@H]1O	-1.72
Cc1cc2ccccc2n1CCC(=O)N1CCN(C)CC1C(N)=O (stereo not given)	-2.15
Cc1ncc(CNC(=O)CCc2ccccc2F)c(C2CCCN2C)n1 (stereo not given)	-0.236
O=C(Cc1ccsc1)N1CCCCC1c1ccn2ccnc2n1 (stereo not given)	8.15
O=C(Cc1ccccc1F)N1CCCCC1c1ccn2ccnc2n1 (stereo not given)	-6.86
COc1cccc(CC(=O)NCc2cnc(C)nc2C2CCCN2C)c1 (stereo not given)	-6.33
COc1cc(CN2CC[C@H](NC(C)=O)[C@@H](O)CC2)ccc1F	12.1
CC(=O)N1CCN([C@@H]2CCC[C@@H](NC(=O)c3cccnc3)[C@H]2O)CC1	-11.5
CC(=O)N1CCN([C@@H]2CC[C@@H](NC(=O)c3cc(C)cs3)[C@H]2O)CC1	-4.78
CC(=O)N1CCC(Cc2cccc(-c3c(C)noc3C)n2)C1 (stereo not given)	-7.61
CCC(=O)N1CCC(c2cncc(Oc3cccnc3)n2)CC1	-5.07
CCC(=O)N1CCC1c1cc(NC2CCCC2)nc(C)n1 (stereo not given)	-2.68
Cc1nc(CCC(=O)NCC(N)=O)cc(C2CCNCC2)n1	-6.67
CC1(C(=O)N2CCOCC2)CN(Cc2ncc[nH]2)CCO1 (stereo not given)	11.7
COCCC(=O)N1CCCC1c1nc(O)cc(-c2ccccn2)n1 (stereo not given)	-5.06
O=C(CN1CCCC1)N1CCCC1c1nc(O)cc(-c2ccccn2)n1 (stereo not given)	11.1
O=C(c1cccnc1)N1CCCC1c1nc(O)cc(-c2ccccn2)n1 (stereo not given)	-6.66
Oc1nc(N2CCCC2)nc2c1CCN(Cc1cccnc1)CC2	-5.83
CN(Cc1ccc(F)cc1)CC1(O)CCN(C(=O)c2ccncc2)C1 (stereo not given)	-5.43
Cc1noc(C)c1-c1cc(CC2CCN(C(=O)c3cc[nH]n3)C2)ncn1 (stereo not given)	-0.894
CC(=O)Nc1nc(C2CCN(C(=O)c3cncs3)CC2)cs1	11.2
COCC(=O)N1CCC(Cc2nccnc2-c2c(C)n[nH]c2C)C1 (stereo not given)	12.4
CN1CCC(c2cccc(Cc3ccccc3)n2)CC1	3.18
CN1CCCC1c1cccc(Cc2ccc(F)cc2)n1 (stereo not given)	17

SMILES	cytotoxicity at 70.5 h [%]
CNC(=O)CCc1cc(C)nc(C2CCCCN2)n1 (stereo not given)	-4.98
O=C(c1ccc(F)cc1)N1CCOC(c2nc(-c3ncccn3)no2)C1 (stereo not given)	-5.53
Nc1nc(C2CCN(C(=O)c3cnccn3)CC2)cs1	15.4
Cc1cccc(Nc2nccnc2C2CCCN2CC(N)=O)n1 (stereo not given)	-2.88
NC(=O)C1(c2cnccn2)CCCN1Cc1ccncc1 (stereo not given)	-0.768
Cc1cc(C)nc(Nc2cccc(C3CCCN(S(C)(=O)=O)C3)n2)n1 (stereo not given)	46.8
Cc1cc(-c2ccc(C(=O)O)cc2)nc(C2CCN(C(C)C)CC2)n1	0.538
O=S(=O)(N1CCOCC1)N1CCC(Oc2cnccn2)CC1	0.596
CN1CCCCC[C@@H]2[C@@H]1[C@H](c1ccccc1)CN2C(=O)c1ccccn1	-1.6
Cn1ccc(C(=O)N2CCOC(c3ccc(C(N)=O)cn3)C2)n1 (stereo not given)	0.762
CN1CC(c2cc(O)nc(NCc3ccccc3Cl)n2)CC1=O (stereo not given)	-2.82
CC(=O)N1CCCC1c1nc(C)cc(-c2ccc(F)cc2)n1 (stereo not given)	-1.51
Cn1nc(C2CN(C(=O)c3ccncc3)C2)c2nccnc21	13.9
CC(=O)N1CCC(c2nccnc2-c2ccc(C(=O)O)cc2)CC1	20
COc1ccc(CN(C)[C@@H]2CN(C(=O)c3ccccc3)C[C@H]2O)cc1	-2.29
c1cnc(Nc2cncc(C3CCCN3)n2)cn1 (stereo not given)	-3.08
CN(C)c1ncc(-c2cccc(C(N)=O)c2)c(C2CNCCO2)n1 (stereo not given)	-1.28
COc1ccc(-c2cnc(N(C)C)nc2C2CNCCO2)cc1 (stereo not given)	-4.32
CN(C)c1ncc(-c2ccc(F)cc2)c(C2CNCCO2)n1 (stereo not given)	-2.95
Cc1noc2nc(C3CCN(CC4CCCCC4)CC3)cc(C(F)F)c12	1.17
c1nc(CCC2CCCCN2)cc(N2CCCC2)n1 (stereo not given)	1.23
c1nc(CCC2CCCN2)cc(N2CCCCCC2)n1 (stereo not given)	0.142
COc1ccc(CN(Cc2ccco2)Cc2[nH]cnc2C)c(OC)c1	-8.31
COc1cccc(CN(Cc2ccco2)Cc2cnc(C)n2C)c1	3.46
COc1ncc(CN2C[C@@H]3CC[C@@](O)(c4ccc(C)cn4)[C@@H]3C2)cn1	2.96
c1cc2nccc(CC3CCCN(Cc4c[nH]cn4)CC3)c2cn1 (stereo not given)	-0.459
